Laboratory results taken from paper PMC11187126, “Structure and dynamics of the pyroglutamylated RF-amide peptide QRFP receptor GPR103” (Nature Communications, 2024).
Where two headings read alike, the source gives them in different places. No end group written: not given here.

Target: T1, GPR103 Y29N-termA (Homo sapiens, UniProt Q96P65, Y29A)
T1 construct: we used human full-length QRFPR-encoding plasmids; expressed in transfected cells; host or cells: HEK293 cells, pCAGGS vector
T1 sequence (Q96P65 1-431 Y29A): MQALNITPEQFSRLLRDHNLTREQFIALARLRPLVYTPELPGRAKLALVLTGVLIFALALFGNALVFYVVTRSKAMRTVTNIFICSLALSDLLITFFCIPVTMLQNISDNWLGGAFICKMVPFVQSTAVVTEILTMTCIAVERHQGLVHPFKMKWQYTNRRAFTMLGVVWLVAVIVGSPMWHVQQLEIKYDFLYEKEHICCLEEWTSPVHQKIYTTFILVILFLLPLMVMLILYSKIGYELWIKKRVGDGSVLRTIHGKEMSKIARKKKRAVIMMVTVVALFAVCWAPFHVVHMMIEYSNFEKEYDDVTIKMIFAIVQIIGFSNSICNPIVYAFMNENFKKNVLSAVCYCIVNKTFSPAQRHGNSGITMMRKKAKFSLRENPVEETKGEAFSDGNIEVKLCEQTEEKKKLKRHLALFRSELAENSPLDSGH
Assay: TGFα shedding assay; Exp. level WT (1:20)
Type: cell-based

Emax (Exp. #1): 95.50 % WT | Emax (Exp. #2): 84.01 % WT | Emax (Exp. #3): 93.81 % WT | Emax (mean, read-out: Emax): 91.1% | EC50 (n = 3): 0.269 µM | Emax (n = 3, read-out: Emax): 94 ± 2.9%
Substance: TSGPLGNLAEELNGYSRKKGGFSFRF-NH2 [QRFP26]
